Source: publication PMC5844530, “Fosmetpantotenate (RE-024), a phosphopantothenate replacement therapy for pantothenate kinase-associated neurodegeneration: Mechanism of action and efficacy in nonclinical models” (PLoS ONE, 2018)
Several values for one entry are separate records, joined by “and”; a condition that tells them apart may be missing. Identical values can stand only once.

Assays:
[1] = Pharmacokinetics in whole blood, CD-1 mice; conditions: for % Parent AUCAll: CD1 mouse, metabolite AUCall/Parent AUCall x 100; for Whole Blood Conc. of compound 2: CD-1 mice; for concentration at 0.083 h / concentration at 2 h / concentration at 4 h / concentration at 8 h / concentration at 0.333 h / concentration at 0.5 h / concentration at 1 h: male, CD-1, mouse, whole blood, po, Whole Blood Conc. of compound 2, CD-1 mice
[2] = Pharmacokinetics in whole blood, cynomolgus monkeys
[3] = Pharmacokinetics in whole blood, Sprague-Dawley rats; conditions: for % Parent AUCAll: Sprague-Dawley rat, metabolite AUCall/Parent AUCall x 100; for Whole Blood Conc. of compound 2: Sprague-Dawley rats; for concentration at 4 h / concentration at 8 h / concentration at 2 h / concentration at 0.5 h: Sprague-Dawley, rat, whole blood, po, Whole Blood Conc. of compound 2, Sprague-Dawley rats
[4] = 100 mg/kg, single 100 mg/kg RE-024-02 PO, LLOQ 3 ng/mL
[5] = 100 mg/kg, single 100 mg/kg RE-024-02 PO, LLOQ 10.2 nM

SMILES: COC(=O)CCNC(=O)[C@@H]1OP(=O)(O)OCC1(C)C [Compound 2]
- % Parent AUCAll ([1]; 100 mg/kg PO): 8,550%
- % Parent AUCAll ([1]; 300 mg/kg PO): 29,800%
- % Parent AUCAll ([1]; 700 mg/kg PO): 7,220%
- Whole Blood Conc. of compound 2 ([1]; single 300 mg/kg RE-024-02 PO, 0.333 hr, LLOQ 3 ng/mL, 300 mg/kg): 495 ng/mL and 550.2 ng/mL and 391.2 ng/mL
- Whole Blood Conc. of compound 2 ([1]; single 300 mg/kg RE-024-02 PO, 0.333 hr, LLOQ 10.2 nM, 300 mg/kg): 1676.7 nM and 1863.6 nM and 1325.1 nM
- Whole Blood Conc. of compound 2 ([1]; single 300 mg/kg RE-024-02 PO, 0.5 hr, LLOQ 3 ng/mL, 300 mg/kg): 472.2 ng/mL and 328.2 ng/mL and 282 ng/mL
- Whole Blood Conc. of compound 2 ([1]; single 300 mg/kg RE-024-02 PO, 0.5 hr, LLOQ 10.2 nM, 300 mg/kg): 1599.4 nM and 1111.7 nM and 955.2 nM
- Whole Blood Conc. of compound 2 ([1]; single 300 mg/kg RE-024-02 PO, 4 hr, LLOQ 3 ng/mL, 300 mg/kg): 15.4 ng/mL and 22.8 ng/mL and 26.2 ng/mL
- Whole Blood Conc. of compound 2 ([1]; single 300 mg/kg RE-024-02 PO, 4 hr, LLOQ 10.2 nM, 300 mg/kg): 52.2 nM and 77.2 nM and 88.6 nM
- Whole Blood Conc. of compound 2 ([1]; single 700 mg/kg RE-024-02 PO, 0.333 hr, LLOQ 3 ng/mL, 700 mg/kg): 1656 ng/mL
- Whole Blood Conc. of compound 2 ([1]; single 700 mg/kg RE-024-02 PO, 0.333 hr, LLOQ 10.2 nM, 700 mg/kg): 5609.2 nM
- Whole Blood Conc. of compound 2 ([1]; single 700 mg/kg RE-024-02 PO, 1 hr, LLOQ 3 ng/mL, 700 mg/kg): 318 ng/mL and 373.2 ng/mL and 381 ng/mL
- Whole Blood Conc. of compound 2 ([1]; single 700 mg/kg RE-024-02 PO, 1 hr, LLOQ 10.2 nM, 700 mg/kg): 1077.1 nM and 1264.1 nM and 1290.5 nM
- Whole Blood Conc. of compound 2 ([1]; single 700 mg/kg RE-024-02 PO, 4 hr, LLOQ 3 ng/mL, 700 mg/kg): 84 ng/mL and 92.4 ng/mL and 88.2 ng/mL
- Whole Blood Conc. of compound 2 ([1]; single 700 mg/kg RE-024-02 PO, 4 hr, LLOQ 10.2 nM, 700 mg/kg): 284.5 nM and 313 nM and 298.8 nM
- concentration at 0.083 h [1, 4]: 17.4 ng/mL
- concentration at 0.083 h [1, 5]: 58.9 nM
- concentration at 2 h [1, 4]: 5.1 ng/mL
- concentration at 2 h [1, 5]: 17.3 nM
- concentration at 4 h ([1]; 100 mg/kg, single 100 mg/kg RE-024-02 PO, 4 hr, LLOQ 3 ng/mL): 3.5 ng/mL
- concentration at 4 h ([1]; 100 mg/kg, single 100 mg/kg RE-024-02 PO, 4 hr, LLOQ 10.2 nM): 11.7 nM
- concentration at 8 h [1, 4]: 3.5 ng/mL
- concentration at 8 h [1, 5]: 11.9 nM
- concentration at 0.333 h ([1]; 300 mg/kg, single 300 mg/kg RE-024-02 PO, 0.333 hr, LLOQ 3 ng/mL): 443 ng/mL
- concentration at 0.333 h ([1]; 300 mg/kg, single 300 mg/kg RE-024-02 PO, 0.333 hr, LLOQ 10.2 nM): 1500 nM
- concentration at 0.5 h ([1]; 300 mg/kg, single 300 mg/kg RE-024-02 PO, 0.5 hr, LLOQ 3 ng/mL): 254 ng/mL
- concentration at 0.5 h ([1]; 300 mg/kg, single 300 mg/kg RE-024-02 PO, 0.5 hr, LLOQ 10.2 nM): 860 nM
- concentration at 4 h ([1]; 300 mg/kg, single 300 mg/kg RE-024-02 PO, 4 hr, LLOQ 3 ng/mL): 21.9 ng/mL
- concentration at 4 h ([1]; 300 mg/kg, single 300 mg/kg RE-024-02 PO, 4 hr, LLOQ 10.2 nM): 74.2 nM
- concentration at 0.333 h ([1]; 700 mg/kg, single 700 mg/kg RE-024-02 PO, 0.333 hr, LLOQ 3 ng/mL): 1910 ng/mL
- concentration at 0.333 h ([1]; 700 mg/kg, single 700 mg/kg RE-024-02 PO, 0.333 hr, LLOQ 10.2 nM): 6460 nM
- concentration at 1 h ([1]; 700 mg/kg, single 700 mg/kg RE-024-02 PO, 1 hr, LLOQ 3 ng/mL): 541 ng/mL
- concentration at 1 h ([1]; 700 mg/kg, single 700 mg/kg RE-024-02 PO, 1 hr, LLOQ 10.2 nM): 1830 nM
- concentration at 4 h ([1]; 700 mg/kg, single 700 mg/kg RE-024-02 PO, 4 hr, LLOQ 3 ng/mL): 104 ng/mL
- concentration at 4 h ([1]; 700 mg/kg, single 700 mg/kg RE-024-02 PO, 4 hr, LLOQ 10.2 nM): 354 nM
- % Parent AUCAll ([2]; Cynomolgus monkey, 300 mg/kg PO, metabolite AUCall/Parent AUCall x 100): 132%
- concentration at 0.5 h ([2]; cynomolgus monkey, whole blood, po, 300 mg/kg, Concentration of compound 2 in whole blood, cynomolgus monkeys, single oral 300 mg/kg fosmetpantotenate, 0.5 hr, LLOQ 2.03 nM): 1860 nM
- concentration at 1 h ([2]; cynomolgus monkey, whole blood, po, 300 mg/kg, Concentration of compound 2 in whole blood, cynomolgus monkeys, single oral 300 mg/kg fosmetpantotenate, 1 hr, LLOQ 2.03 nM): 1970 nM
- concentration at 4 h ([2]; cynomolgus monkey, whole blood, po, 300 mg/kg, Concentration of compound 2 in whole blood, cynomolgus monkeys, single oral 300 mg/kg fosmetpantotenate, 4 hr, LLOQ 2.03 nM): 2350 nM
- concentration at 8 h ([2]; cynomolgus monkey, whole blood, po, 300 mg/kg, Concentration of compound 2 in whole blood, cynomolgus monkeys, single oral 300 mg/kg fosmetpantotenate, 8 hr, LLOQ 2.03 nM): 1150 nM
- Concentration of compound 2 in whole blood ([2]; cynomolgus monkeys, single oral 300 mg/kg fosmetpantotenate, 0.083 hr, LLOQ 2.03 nM): BQL
- Concentration of compound 2 in whole blood ([2]; cynomolgus monkeys, single oral 300 mg/kg fosmetpantotenate, 0.5 hr, LLOQ 2.03 nM, 300 mg/kg): 1210.45 nM
- Concentration of compound 2 in whole blood ([2]; cynomolgus monkeys, single oral 300 mg/kg fosmetpantotenate, 1 hr, LLOQ 2.03 nM, 300 mg/kg): 2023.57 nM
- Concentration of compound 2 in whole blood ([2]; cynomolgus monkeys, single oral 300 mg/kg fosmetpantotenate, 4 hr, LLOQ 2.03 nM, 300 mg/kg): 4441.22 nM
- Concentration of compound 2 in whole blood ([2]; cynomolgus monkeys, single oral 300 mg/kg fosmetpantotenate, 8 hr, LLOQ 2.03 nM, 300 mg/kg): 996.85 nM
- % Parent AUCAll ([3]; 300 mg/kg PO): 1,250%
- % Parent AUCAll ([3]; 700 mg/kg PO): 220%
- Whole Blood Conc. of compound 2 ([3]; single 300 mg/kg RE-024-02 PO, time 2, LLOQ 3 ng/mL, 300 mg/kg): 38.46 ng/mL and 47.10 ng/mL
- Whole Blood Conc. of compound 2 ([3]; single 300 mg/kg RE-024-02 PO, time 2, LLOQ 10.2 nM, 300 mg/kg): 130.27 nM and 159.54 nM
- Whole Blood Conc. of compound 2 ([3]; single 300 mg/kg RE-024-02 PO, time 8, LLOQ 3 ng/mL, 300 mg/kg): 5.25 ng/mL and 7.14 ng/mL
- Whole Blood Conc. of compound 2 ([3]; single 300 mg/kg RE-024-02 PO, time 8, LLOQ 10.2 nM, 300 mg/kg): 17.78 nM and 24.18 nM
- Whole Blood Conc. of compound 2 ([3]; single 700 mg/kg RE-024-02 PO, time 0.5, LLOQ 3 ng/mL, 700 mg/kg): 247.20 ng/mL and 285.00 ng/mL
- Whole Blood Conc. of compound 2 ([3]; single 700 mg/kg RE-024-02 PO, time 0.5, LLOQ 10.2 nM, 700 mg/kg): 837.31 nM and 965.35 nM
- Whole Blood Conc. of compound 2 ([3]; single 700 mg/kg RE-024-02 PO, time 2, LLOQ 3 ng/mL, 700 mg/kg): 61.80 ng/mL and 118.20 ng/mL
- Whole Blood Conc. of compound 2 ([3]; single 700 mg/kg RE-024-02 PO, time 2, LLOQ 10.2 nM, 700 mg/kg): 209.33 nM and 400.37 nM
- concentration at 4 h ([3]; 100 mg/kg, single 100 mg/kg RE-024-02 PO, time 4, LLOQ 3 ng/mL): 5.57 ng/mL
- concentration at 4 h ([3]; 100 mg/kg, single 100 mg/kg RE-024-02 PO, time 4, LLOQ 10.2 nM): 18.9 nM
- concentration at 8 h ([3]; 100 mg/kg, single 100 mg/kg RE-024-02 PO, time 8, LLOQ 3 ng/mL): 6.42 ng/mL
- concentration at 8 h ([3]; 100 mg/kg, single 100 mg/kg RE-024-02 PO, time 8, LLOQ 10.2 nM): 21.8 nM
- concentration at 2 h ([3]; 300 mg/kg, single 300 mg/kg RE-024-02 PO, time 2, LLOQ 10.2 nM): 258 nM
- concentration at 8 h ([3]; 300 mg/kg, single 300 mg/kg RE-024-02 PO, time 8, LLOQ 3 ng/mL): 9.36 ng/mL
- concentration at 8 h ([3]; 300 mg/kg, single 300 mg/kg RE-024-02 PO, time 8, LLOQ 10.2 nM): 31.7 nM
- concentration at 2 h ([3]; male, 300 mg/kg, single 300 mg/kg RE-024-02 PO, time 2, LLOQ 3 ng/mL): 76.2 ng/mL
- concentration at 0.5 h ([3]; male, 700 mg/kg, single 700 mg/kg RE-024-02 PO, time 0.5, LLOQ 3 ng/mL): 452 ng/mL
- concentration at 0.5 h ([3]; male, 700 mg/kg, single 700 mg/kg RE-024-02 PO, time 0.5, LLOQ 10.2 nM): 1530 nM
- concentration at 2 h ([3]; male, 700 mg/kg, single 700 mg/kg RE-024-02 PO, time 2, LLOQ 3 ng/mL): 105 ng/mL
- concentration at 2 h ([3]; male, 700 mg/kg, single 700 mg/kg RE-024-02 PO, time 2, LLOQ 10.2 nM): 356 nM
